Laboratory results as given in the NIST ThermoML archive (doi:10.1021/je900632q).

Experiment: xn = mol fraction of the nth substance listed
Details: 101 kPa, Liquid

CCCCn1cc[n+](C)c1.N#CN=C=[N-] [1-butyl-3-methylimidazolium dicyanamide] + O
Details | mass density [kg/m3] | viscosity [mPa·s]
278.15 K, x2 = 0 | 1075.8 | 82.07
278.15 K, x2 = 0.059 | 1075.3 | 74.2
278.15 K, x2 = 0.1963 | 1074.3 | 58.7
278.15 K, x2 = 0.2736 | 1072.8 | 48.94
278.15 K, x2 = 0.35 | 1071.1 | 37.6
278.15 K, x2 = 0.3974 | 1069.4 | 31.98
278.15 K, x2 = 0.4831 | 1066.2 | 23.22
288.15 K, x2 = 0 | 1069.4 | 48.93
288.15 K, x2 = 0.059 | 1068.9 | 44.99
288.15 K, x2 = 0.1963 | 1067.8 | 36.45
288.15 K, x2 = 0.2736 | 1066.4 | 30.87
288.15 K, x2 = 0.35 | 1064.6 | 24.28
288.15 K, x2 = 0.3974 | 1062.9 | 20.88
288.15 K, x2 = 0.4831 | 1059.6 | 15.38
298.15 K, x2 = 0 | 1063.1 | 31.8
298.15 K, x2 = 0.059 | 1062.5 | 29.55
298.15 K, x2 = 0.1963 | 1061.4 | 24.4
298.15 K, x2 = 0.2736 | 1059.9 | 20.94
298.15 K, x2 = 0.35 | 1059.1 | 16.75
298.15 K, x2 = 0.3974 | 1056.3 | 14.52
298.15 K, x2 = 0.4831 | 1052.9 | 10.8
308.15 K, x2 = 0 | 1056.8 | 21.79
308.15 K, x2 = 0.059 | 1056.2 | 20.6
308.15 K, x2 = 0.1963 | 1055 | 17.29
308.15 K, x2 = 0.2736 | 1053.6 | 15
308.15 K, x2 = 0.35 | 1051.6 | 12.16
308.15 K, x2 = 0.3974 | 1049.8 | 10.61
308.15 K, x2 = 0.4831 | 1046.2 | 7.951
318.15 K, x2 = 0 | 1050.6 | 15.88
318.15 K, x2 = 0.059 | 1050.1 | 15.09
318.15 K, x2 = 0.1963 | 1048.7 | 12.82
318.15 K, x2 = 0.2736 | 1047.3 | 11.22
318.15 K, x2 = 0.35 | 1045.2 | 9.198
318.15 K, x2 = 0.3974 | 1043.3 | 8.072
318.15 K, x2 = 0.4831 | 1039.6 | 6.072
328.15 K, x2 = 0 | 1044.4 | 12.06
328.15 K, x2 = 0.059 | 1043.9 | 11.49
328.15 K, x2 = 0.1963 | 1042.4 | 9.885
328.15 K, x2 = 0.2736 | 1041 | 8.702
328.15 K, x2 = 0.35 | 1038.8 | 7.202
328.15 K, x2 = 0.3974 | 1036.9 | 6.346
328.15 K, x2 = 0.4831 | 1033 | 4.792
338.15 K, x2 = 0 | 1038.2 | 9.475
338.15 K, x2 = 0.059 | 1037.7 | 9.047
338.15 K, x2 = 0.1963 | 1036.2 | 7.852
338.15 K, x2 = 0.2736 | 1034.7 | 6.95
338.15 K, x2 = 0.35 | 1032.4 | 5.798
338.15 K, x2 = 0.3974 | 1030.5 | 5.126
338.15 K, x2 = 0.4831 | 1026.4 | 3.884
348.15 K, x2 = 0 | 1032.1 | 7.643
348.15 K, x2 = 0.059 | 1031.5 | 7.314
348.15 K, x2 = 0.1963 | 1030 | 6.397
348.15 K, x2 = 0.2736 | 1028.5 | 5.688
348.15 K, x2 = 0.35 | 1026.1 | 4.777
348.15 K, x2 = 0.3974 | 1024.1 | 4.237
348.15 K, x2 = 0.4831 | 1019.8 | 3.223
358.15 K, x2 = 0 | 1025.8 | 6.304
358.15 K, x2 = 0.059 | 1025.3 | 6.048
358.15 K, x2 = 0.1963 | 1023.8 | 5.322
358.15 K, x2 = 0.2736 | 1022.3 | 4.748
358.15 K, x2 = 0.35 | 1019.8 | 4.007
358.15 K, x2 = 0.3974 | 1017.7 | 3.577
358.15 K, x2 = 0.4831 | 1013.2 | 2.711
